These results are taken from US11466054B2, “Inhibitors of metastasis” (BIOMARCK PHARMACEUTICALS LTD., priority 2013, dated 2022).

Where no end group is shown, it is not given here.

One assay concerns CL1-5 cells. Put plainly: Transwell migration assay, CL1-5 cells pretreated with peptide.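 For migration index: index equals control cell count divided by treated cell count.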 Conditions: 12 hours; for cell number: control approximately 105; for migration index: control=1.0. The class given is cell-based, human. Here is the method:
CL1-5 cells, an aggressively metastatic cell line derived from a human adenocarcinoma, were cultured in RPMI 1640 media with 10% FBS, 37° C. at 95% […]/5% CO2 until ready for use. Transwell plates (24-well, 8-um pore size; Costar, Cambridge, Mass., USA) were used to conduct the migration assay. The lower chambers of the Transwell plates were filled with 600 μl of basal media containing 10% FBS. The cells (1×10^5) were pretreated with 50 or 100 μM of the indicated test peptide for 30 min, and then suspended in 100 μl of basal media containing 1% BSA and added to the upper chamber, and the cells then were incubated at 37° C. for 12 hr. The cells on the upper surface of the filters were removed using cotton swabs, and the cells that migrated to the lower surface of the filters were washed, fixed, and stained with hematoxylin and counted under the microscope. The percent change in migration was determined by counting the number of cells that migrated to the lower surface of the filters. At least 3 separate microscopic fields were counted per membrane (n=4).
Primary CL1-5 cells originated from human adenocarcinoma lung cancer Transwell plates with 24-wells, 8-μ pore size (Costar, Cambridge, Mass., USA) were used to conduct the migration assay. The lower chambers of the transwell plates were filled with 600 μL of basal media containing 10% FBS. The cells (1-2×10^5) were suspended in 100 μL of basal media containing 1% BSA. The test peptide at desired concentration was added to the upper chamber directly or after preincubation with cancer cells. The plates were then incubated at 37° C. for 12 hours. The cells on the upper surface of the filters were removed using cotton swabs. The cells that migrated to the lower surface of the filters were washed, fixed, and stained with hematoxylin and counted under the microscope. At least five separate microscopic fields are counted per membrane (n=3). The percent change in migration was determined by counting the number of cells that migrated to the lower surface of the filters.
The count means the actual number of cells which migrated to the lower chamber and counted by a light microscope at 40× magnification, presented as the mean number of cells in 10 randomly chosen fields for each treatment.
The “index” was calculated by dividing the number of cells that migrated in the presence of peptides by the number of cells that migrated randomly (control group). […]. This calculation can reflect the extent that the migration of cells was blocked by 30 minute pretreatment with MANS-related peptides.

In the next assay the test system is PC-9 cells. Put plainly: Orthotopic lung injection xenograph model, PC-9 cells in nude mice. The class given is in vivo. Conditions: 50 nmoles i.p. once every three days, 25 days. Here is the method: The metastatic activity of cancer cells in vivo after treatment with MANS peptide or BIO-11006 was assessed in the orthotopic lung injection xenograph model. After pretreatment with either PBS, or PBS+MANS, BIO-11006 (SEQ ID NO: 106), or the control RNS peptide at 100 μM for 4 hours, PC-9 cells were injected into the left lobe of the lung of nude mice. Seven days later, these mice were given systemic treatment with either PBS only (Con), RNS (additional control peptide), MANS or BIO-11006 at 50 nmoles per intraperitoneal injection once every three days. At 25 days (6 injections) post-seeding of these tumor cells, mice were sacrificed and the number of metastasized tumor nodules in the contralateral lung and other organs was counted.

[1] abbreviates: CL1-5, 50 μmolar pretreatment, FIG. 9.
[2] abbreviates: CL1-5, 100 μmolar pretreatment, FIG. 10.

For the substance “N-acetyl-GAQFSKTAAK (Ac-GAQFSKTAAK; listed as Homo sapiens) [BIO-11006]”, in the assay with CL1-5 cells (setting [1]), the cell number entry was “approximately 50” and the migration index entry is recorded as “approximately 2”. Moreover, in the assay with CL1-5 cells (setting [2]), the cell number entry was “approximately 50” and the migration index result is reported as “approximately 2.1”. In the assay on PC-9 cells, the “Metastases (affected mice/total mice) Diaphragm” value is listed as 0/2, the “Metastases (affected mice/total mice) Heart” value is listed as 0/2, the “Metastases (affected mice/total mice) Intestines” value is reported as 0/2 and the “Metastases (affected mice/total mice) Spleen” value is 0/2. For the same substance, the “No. of Metastatic Lung Tumors Mean ± SE (L't)” value with PC-9 cells (left lung) is 0; 0. For the same substance, the “No. of Metastatic Lung Tumors Mean ± SE (R't)” value in the assay on PC-9 cells (right lung) is given as 0; 0. Besides, the “Tumor Size (mm) Mean ± SE” value in the assay on PC-9 cells (tumor at site of injection, cells pretreated 100 μM 4 hours) worked out at 1.61 ± 0.37 mm.
